Converted amounts (≈) assume the structure as drawn.
Columns and labels:
A. baumannii 1258916 = assay: microbe, parasite or virus in culture; type: cell-based, Acinetobacter baumannii; settings: Acinetobacter baumannii, 1258916, read-out: MIC, A. baumannii 1258916
[1] = biological target: T1, PBP3 from Acinetobacter baumannii (ATCC 19606) (Acinetobacter baumannii, UniProt A0ABX6CK25); assay: Bocillin-FL fluorescence polarization competition binding, A. baumannii PBP3; settings: fluorescence polarization competition binding assay using Bocillin-FL; read-out: A. baumannii PBP3 Potency
T1 sequence (A0ABX6CK25 64-610): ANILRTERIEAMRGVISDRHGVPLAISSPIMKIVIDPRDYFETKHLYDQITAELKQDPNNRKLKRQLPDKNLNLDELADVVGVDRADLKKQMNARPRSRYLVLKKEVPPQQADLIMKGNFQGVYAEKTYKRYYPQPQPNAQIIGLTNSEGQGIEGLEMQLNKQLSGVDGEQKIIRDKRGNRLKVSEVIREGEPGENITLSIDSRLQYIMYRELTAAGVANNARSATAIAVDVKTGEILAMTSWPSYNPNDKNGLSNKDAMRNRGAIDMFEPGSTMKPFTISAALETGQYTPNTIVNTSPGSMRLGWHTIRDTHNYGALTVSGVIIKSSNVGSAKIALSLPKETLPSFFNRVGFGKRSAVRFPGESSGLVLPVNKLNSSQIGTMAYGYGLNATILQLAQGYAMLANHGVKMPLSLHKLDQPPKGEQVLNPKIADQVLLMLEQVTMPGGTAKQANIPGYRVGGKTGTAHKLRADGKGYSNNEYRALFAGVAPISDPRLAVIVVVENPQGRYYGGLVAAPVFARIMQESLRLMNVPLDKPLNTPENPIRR
How it was run: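 Purified PBP was preincubated with inhibitor (E. coli PBP3 1.5 μM, 30 min; P. aeruginosa PBP3 0.75 μM, A. baumannii PBP3 0.2 μM and PBP1a 1 μM, 15 min), then Bocillin-FL (0.1 μM; 0.05 μM for PBP1a) added and FP read up to 60 min. EC50 = 50% loss of bound probe.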

N. gonorrhoeae WHO X = assay: Liquid broth MIC in Fastidious broth; settings: Neisseria gonorrhoeae, read-out: Minimum Inhibitory Concentration (MIC), N. gonorrhoeae WHO X
N. gonorrhoeae WHO Z = assay: Liquid broth MIC in Fastidious broth; settings: Neisseria gonorrhoeae, read-out: Minimum Inhibitory Concentration (MIC), N. gonorrhoeae WHO Z
N. gonorrhoeae WHO Q = assay: Liquid broth MIC in Fastidious broth; settings: Neisseria gonorrhoeae, read-out: Minimum Inhibitory Concentration (MIC), N. gonorrhoeae WHO Q
N. gonorrhoeae WHO K = assay: Liquid broth MIC in Fastidious broth; settings: Neisseria gonorrhoeae, read-out: Minimum Inhibitory Concentration (MIC), N. gonorrhoeae WHO K
P. aeruginosa CDC-0095 = assay: microbe, parasite or virus in culture; type: cell-based; settings: Pseudomonas aeruginosa, CDC0095, read-out: Minimum inhibitory concentration, P. aeruginosa CDC-0095
A. baumannii CDC-0036 = assay: microbe, parasite or virus in culture; type: cell-based; settings: Acinetobacter baumannii, CDC0036, read-out: MIC, A. baumannii CDC-0036
N. gonorrhoeae WHO G = assay: Liquid broth MIC in Fastidious broth; settings: Neisseria gonorrhoeae, read-out: Minimum Inhibitory Concentration (MIC), N. gonorrhoeae WHO G
N. gonorrhoeae WHO M = assay: Liquid broth MIC in Fastidious broth; settings: Neisseria gonorrhoeae, read-out: Minimum Inhibitory Concentration (MIC), N. gonorrhoeae WHO M
N. gonorrhoeae FA1090 = assay: Liquid broth MIC in Fastidious broth; settings: Neisseria gonorrhoeae, FA1090, read-out: Minimum Inhibitory Concentration (MIC), N. gonorrhoeae FA 1090

O=C(CN1CCN(C(=O)NC(C(=O)N[C@H]2Cc3ccc(F)c(C(=O)O)c3OB2O)c2cc(F)c(O)c(O)c2Cl)C(=O)C1=O)Nc1cccc(O)c1 (stereo partly drawn) [Example 231, (3R)-3-(2-(2-chloro-5-fluoro-3,4-dihydroxyphenyl)-2-(4-(2-((3-hydroxyphenyl)amino)-2-oxoethyl)-2,3-dioxopiperazine-1-carboxamido)acetamido)-7-fluoro-2-hydroxy-3,4-dihydro-2H-benzo[e][1,2]oxaborinine-8-carboxylic acid]
MIC (A. baumannii 1258916): 2 to 4 µg/mL (≈ 2.73 to 5.47 µM)
IC50 [1]: < 10 µM
MIC (N. gonorrhoeae WHO X): > 64 µg/mL
MIC (N. gonorrhoeae WHO Z): 16 to 32 µg/mL (≈ 21.9 to 43.7 µM)
MIC (N. gonorrhoeae WHO Q): 16 to 32 µg/mL (≈ 21.9 to 43.7 µM)
MIC (N. gonorrhoeae WHO K): 16 to 32 µg/mL (≈ 21.9 to 43.7 µM)
MIC (P. aeruginosa CDC-0095): 2 to 4 µg/mL (≈ 2.73 to 5.47 µM)
MIC (A. baumannii CDC-0036): 2 to 4 µg/mL (≈ 2.73 to 5.47 µM)
MIC (N. gonorrhoeae WHO G): 4 to 8 µg/mL (≈ 5.47 to 10.9 µM)
MIC (N. gonorrhoeae WHO M): 4 to 8 µg/mL (≈ 5.47 to 10.9 µM)
MIC (N. gonorrhoeae FA1090): 1 to 2 µg/mL (≈ 1.37 to 2.73 µM)
